Measured values reported in patent publication US20260256728A1, “TREATMENT FOR ASYMPTOMATIC STARGARDT DISEASE PATIENTS” (priority 2024, published 2026).

Tested on: atrophic retinal lesions in Stargardt disease patients
Assay: TEASE-1 growth rate of atrophic retinal lesions by fundus autofluorescence imaging
Format: in vivo, human
Set-up: relative slower growth rate of atrophic retinal lesions versus control / Percentage Slowing of Atrophic Retinal Lesion Growth Rate: concentration or dose not given beside the values
Procedure: The Tolerability and Effects of gildeuretinol acetate in Stargardt Disease (Clinical trial group 1, also known as TEASE-1) was a 24-month, multicenter, double-masked, placebo-controlled trial designed to evaluate the efficacy and safety of daily oral gildeuretinol acetate in slowing the growth of atrophic retinal lesions in Stargardt disease patients. The trial was conducted at multiple sites in the United States (NCT02402660).
Patients 12 years or older, clinically diagnosed with Stargardt disease, with at least one ABCA4 mutation, at least one eye presenting with well-demarcated areas of reduced fundus autofluorescence including retinal atrophic lesions, and with any visual acuity, were enrolled.
Patients were randomized to gildeuretinol acetate 14 mg capsules, gildeuretinol acetate 24 mg capsules, or placebo capsules, to be taken once daily for one year. After one year, 50% of randomly selected patients receiving placebo were crossed over in a 1:1 ratio to gildeuretinol acetate 14 mg capsules or gildeuretinol acetate 24 mg capsules for a second year.
Deidentified retinal images of patients not enrolled in the trial were included as a natural history cohort. This natural history cohort comprised patients diagnosed with Stargardt disease of any age, with two or more longitudinal fundus autofluorescence images taken at least four months apart over a maximum period of 2.5 years.
[…] retinal imaging comparing gildeuretinol acetate versus the untreated arm ([…]). Only well-delineated and homogeneous retinal atrophic lesions ≥0.2 mm^2 with a summed area ≥0.5 mm^2 were included in the primary analysis.
The primary endpoint analysis used a linear mixed-effect model (LMEM) with repeated measures, conferring a higher power to detect smaller effects. All observed data, including both eyes, were utilized. Treatment duration was computed as a continuous measure for each visit based on years since randomization. Adjustments for baseline retinal atrophy used the baseline atrophic retinal lesion size as a fixed effect in the LMEM. Additional fixed effects included treatment arm, treatment duration, and interaction between the treatment arm and treatment duration. Random effects included patient, eye, grader to adjust for correlation between eyes within a patient, graders' assessment of an eye, and observations of the same eye over time. A random effect slope term was added to the effect of treatment duration. Patients who crossed over to gildeuretinol acetate after year one were included in the untreated arm from baseline to year one, then in the gildeuretinol acetate arm from […] upon crossing over to gildeuretinol acetate. The full analysis set (FAS) comprised all randomized patients who received at least one dose of the study drug.
[…] All available data between 0 and 24 months was used to compute the slope of each segment. The primary efficacy endpoint was the slope of the second segment. No constraints were imposed on the Y-intercept. All growth rates were calculated on a per-year basis.
No imputations were made for missing data because the LMEM yields valid inferences under the assumption of a missing-at-random mechanism. The two-sided P-value of the primary efficacy endpoint was calculated using Kenward-Roger's method for handling denominator degrees of freedom and small samples. The goodness of fit of the linear mixed-effect model was provided as R-squared (R^2). Analyses were conducted in R (R Core Team, 2020). Prespecified, unadjusted sensitivity analyses of the primary efficacy endpoint included growth rates of untransformed areas of retinal atrophy and growth rates using a single-slope from baseline until the last available visit. Post-hoc unadjusted analyses were performed to evaluate the potential contribution of patient characteristics.

[2H]C([2H])([2H])C(/C=C/C=C(C)/C=C/C1=C(C)CCCC1(C)C)=C\CO [Gildeuretinol, C20D3-retinol]
Percentage Slowing of Atrophic Retinal Lesion Growth Rate (Crossover patients: 12 months placebo vs. 12 months treatment): 21% | Percentage Slowing of Atrophic Retinal Lesion Growth Rate (Excluding 2 natural history cases <18 years old, 9 natural histories >60 years old): 21% | Percentage Slowing of Atrophic Retinal Lesion Growth Rate (Excluding 3 randomized patients with one confirmed mutation): 20% | Percentage Slowing of Atrophic Retinal Lesion Growth Rate (Excluding 13 natural history cases without any confirmed ABCA4 mutations and 6 natural histories with one confirmed mutation): 20% | Percentage Slowing of Atrophic Retinal Lesion Growth Rate (Excluding 16 natural histories with only two follow up time points): 20% | Percentage Slowing of Atrophic Retinal Lesion Growth Rate (Excluding natural history, randomized patients only, one slope (mm^2)): 30% | Percentage Slowing of Atrophic Retinal Lesion Growth Rate (Excluding natural history, randomized patients only, two slopes (mm^2)): 23% | Percentage Slowing of Atrophic Retinal Lesion Growth Rate (Using a single-slope from 0 to 24 months (mm^2)): 31% | Percentage Slowing of Atrophic Retinal Lesion Growth Rate (Using untransformed areas of atrophic lesions (mm^2)): 28%
